Columns and labels:
wild type PKR [1] = target: T1, wild type PKR (Homo sapiens, UniProt P30613); assay: PKR (wild type) enzyme AC50 assay, LDH/NADH-coupled, absorbance at 340 nm; type: biochemical; settings: for AC50: Table 2, enzyme assay, read-out: PKR WT AC50; for EC50: Table 4, AC50, enzyme assay, read-out: PKR WT
Outline: (§1)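 Enzyme amount (40-400 ng/well) and substrate levels vary by PKR variant. The coupled read-out uses LDH (0.5 units) consuming NADH, tracked at 340 nm at room temperature after ADP initiation, following a one-hour compound preincubation.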

PKR R510Q = PKR R510Q (Homo sapiens, UniProt P30613, R510Q); assay: PKR mutant assay (R510Q), AC50, LDH/NADH-coupled, absorbance at 340 nm; type: biochemical; settings: for AC50: read-out: PK R510Q AC50; for EC50: Table 4, AC50, enzyme assay, read-out: PK R510Q
Sequence of PKR R510Q (P30613 whole entry R510Q): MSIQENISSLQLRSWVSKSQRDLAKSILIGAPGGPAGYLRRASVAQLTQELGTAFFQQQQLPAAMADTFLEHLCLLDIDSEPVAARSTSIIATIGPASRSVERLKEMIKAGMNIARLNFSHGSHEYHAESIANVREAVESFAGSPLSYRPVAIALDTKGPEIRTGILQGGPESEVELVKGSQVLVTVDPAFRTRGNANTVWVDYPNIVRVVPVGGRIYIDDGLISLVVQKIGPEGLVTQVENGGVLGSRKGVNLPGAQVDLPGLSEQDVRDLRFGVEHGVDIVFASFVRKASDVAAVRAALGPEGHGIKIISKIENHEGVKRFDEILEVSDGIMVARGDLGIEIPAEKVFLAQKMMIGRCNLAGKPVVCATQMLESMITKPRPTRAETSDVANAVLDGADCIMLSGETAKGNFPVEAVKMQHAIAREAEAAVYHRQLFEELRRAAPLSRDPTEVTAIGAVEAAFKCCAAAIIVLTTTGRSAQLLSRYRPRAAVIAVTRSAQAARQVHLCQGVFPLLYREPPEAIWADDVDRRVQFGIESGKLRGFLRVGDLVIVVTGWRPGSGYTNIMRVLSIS
Outline: as §1

PKR K410E = PKR K410E (Homo sapiens, UniProt P30613, K410E); assay: PKR mutant assay (K410E), AC50, LDH/NADH-coupled, absorbance at 340 nm; type: biochemical; settings: for AC50: Table 2, enzyme assay; for EC50: Table 4, AC50, enzyme assay
Sequence of PKR K410E (P30613 whole entry K410E): as the sequence (P30613 whole entry R510Q) above, with K410E, Q510R counted along it
Outline: as §1

wild type PKR [2] = target: T1, wild type PKR; assay: Cell based ATP assay in purified red blood cells (Cell-Titer-Glo); set-up: endogenous in cells; host or cells: purified red blood cells from healthy volunteers; settings: overnight at 37° C., ATP levels
Outline: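 RBCs from healthy human donors' K2EDTA blood were leukocyte-depleted by filtration and resuspended in AGAM (PBS, 1% glucose, adenine, mannitol). Cells at 1×10^7 cells/mL were incubated overnight at 37 °C with serially diluted compound at 0.1% DMSO, and ATP was read by Cell-Titer-Glo luminescence.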

T1 sequence (P30613 whole entry): as the sequence (P30613 whole entry R510Q) above, with Q510R counted along it

Row | SMILES | AC50 (wild type PKR [1]) | AC50 (PKR R510Q; Table 2, enzyme assay) | AC50 (PKR K410E) | AC50 (wild type PKR [2]; Table 2, RBCs) | EC50 (wild type PKR [1]) | EC50 (PKR R510Q) | EC50 (PKR K410E) | EC50 (wild type PKR [2]; Table 4, AC50, RBCs) | Cell based ATP assay (wild type PKR [2]; Table 4, AC50, RBCs) | PK R510Q AC50 (PKR R510Q; Table 2, enzyme assay) | Cell based ATP assay AC50 (wild type PKR [2]; Table 2, RBCs)
1 | Cn1c2nc(C(C)(O)c3ccccc3)sc2c2cnn(Cc3cccc4[nH]ncc34)c(=O)c21 (stereo not shown) [Compound 126] | < 300 nM | < 300 nM | < 300 nM | ≤ 1000 nM | – | – | – | – | – | – | –
2 | Cn1c2nc(Cc3cccc4[nH]c(=O)[nH]c34)sc2c2cnn(Cc3cccc4[nH]ncc34)c(=O)c21 [Compound 245] | – | – | – | – | 301 to 800 nM | < 300 nM | 301 to 800 nM | ≤ 1000 nM | – | – | –
3 | Cc1nc2c(s1)c1cnn(Cc3cccc(C(C)N)c3)c(=O)c1n2C (stereo not shown) [Compound 57] | < 300 nM | < 300 nM | < 300 nM | ≤ 1000 nM | – | – | – | – | – | – | –
4 | Cc1nc2c(s1)c1cnn(Cc3cccc(F)c3)c(=O)c1n2C [Compound 6] | > 800 nM | > 800 nM | > 800 nM | > 1000 nM | – | – | – | – | – | – | –
5 | Cn1c2nc(Cn3ccnc3)sc2c2cnn(Cc3cccc(C(N)=O)c3)c(=O)c21 [Compound 390] | – | – | – | – | > 800 nM | > 800 nM | > 800 nM | – | No Fit | – | –
6 | COC(=O)C(c1cc[nH]n1)c1nc2c(s1)c1cnn(Cc3cccc4[nH]ncc34)c(=O)c1n2C (stereo not shown) [Compound 171] | > 800 nM | > 800 nM | 301 to 800 nM | ≤ 1000 nM | – | – | – | – | – | – | –
7 | Cc1cccc(Cn2ncc3c4sc(C)nc4n(C)c3c2=O)n1 [Compound 17] | < 300 nM | < 300 nM | < 300 nM | ≤ 1000 nM | – | – | – | – | – | – | –
8 | Cn1c2nc([S+](C)[O-])sc2c2cnn(Cc3cccc4[nH]ncc34)c(=O)c21 (stereo not shown) [Compound 71] | 301 to 800 nM | 301 to 800 nM | 301 to 800 nM | ≤ 1000 nM | – | – | – | – | – | – | –
9 | Cc1nc2c(s1)c1cnn(Cc3cn[nH]c3)c(=O)c1n2C [Compound 72] | > 800 nM | > 800 nM | > 800 nM | > 1000 nM | – | – | – | – | – | – | –
10 | Cn1c2nc([C@H](O)c3cc[nH]n3)sc2c2cnn(Cc3cccc4[nH]ncc34)c(=O)c21 [Compound 305] | – | – | – | – | < 300 nM | < 300 nM | < 300 nM | ≤ 1000 nM | – | – | –
11 | Cn1c2nc(Cc3cc[nH]n3)sc2c2cnn(Cc3ccc(O)c(N)c3)c(=O)c21 [Compound 256] | – | – | – | – | < 300 nM | < 300 nM | < 300 nM | ≤ 1000 nM | – | – | –
12 | C#CCn1ncc2c3sc(Cc4ccccn4)nc3n(C)c2c1=O [Compound 404] | – | – | – | – | < 300 nM | < 300 nM | < 300 nM | ≤ 1000 nM | – | – | –
13 | COc1cc(Cc2nc3c(s2)c2cnn(Cc4cccc5[nH]ncc45)c(=O)c2n3C)ccn1 [Compound 215] | – | – | – | – | < 300 nM | < 300 nM | < 300 nM | ≤ 1000 nM | – | – | –
14 | Cn1c2nc(Cc3ccon3)sc2c2cnn(Cc3cccc4[nH]ncc34)c(=O)c21 [Compound 166] | 301 to 800 nM | 301 to 800 nM | > 800 nM | > 1000 nM | – | – | – | – | – | – | –
15 | Cc1nc2c(s1)c1cnn(Cc3ccc4nn[nH]c4c3)c(=O)c1n2C [Compound 20] | > 800 nM | > 800 nM | > 800 nM | > 1000 nM | – | – | – | – | – | – | –
16 | Cc1nc2c(s1)c1cnn(Cc3cc[nH]n3)c(=O)c1n2C [Compound 68] | < 300 nM | < 300 nM | < 300 nM | ≤ 1000 nM | – | – | – | – | – | – | –
17 | Cn1c2nc(Nc3ccccc3)sc2c2cnn(Cc3cccc4[nH]ncc34)c(=O)c21 [Compound 135] | > 800 nM | – | > 800 nM | – | – | – | – | – | – | No Fit | No Fit
18 | COc1cccc(Cn2ncc3c4sc(C(C)O)nc4n(C)c3c2=O)c1 (stereo not shown) [Compound 52] | < 300 nM | < 300 nM | < 300 nM | ≤ 1000 nM | – | – | – | – | – | – | –
19 | COC(=O)Cc1nc2c(s1)c1cnn(Cc3cccc4[nH]ncc34)c(=O)c1n2C [Compound 131] | 301 to 800 nM | < 300 nM | < 300 nM | > 1000 nM | – | – | – | – | – | – | –
20 | COc1cccc(Cn2ncc3c4sc(C(C)(C)O)nc4n(C)c3c2=O)c1 [Compound 63] | < 300 nM | < 300 nM | < 300 nM | > 1000 nM | – | – | – | – | – | – | –
21 | Cn1c2nc(Cc3cccc(C(N)=O)c3)sc2c2cnn(Cc3cccc4[nH]ncc34)c(=O)c21 [Compound 100] | < 300 nM | < 300 nM | < 300 nM | ≤ 1000 nM | – | – | – | – | – | – | –
22 | Cn1c2nc(Cc3cc[nH]n3)sc2c2cnn(Cc3nccc4[nH]ncc34)c(=O)c21 [Compound 199] | – | – | – | – | < 300 nM | < 300 nM | < 300 nM | ≤ 1000 nM | – | – | –
